Assays:
[1] = test system: NCI-H358 cells (KRAS G12C mutant cell line); assay: Inhibition of NCI-H358 cell proliferation (CellTiter-Glo, 72 h); type: cell-based, human; conditions: Homo sapiens
In short: (§1)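 Cells were seeded overnight at 37 °C, 5% CO2, then exposed to serially diluted compound (DMSO/medium) alongside a solvent control for 72 h. Viability was read by CellTiter-Glo luminescence, and IC50 was derived by nonlinear regression of inhibition rate against concentration.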

hERG potassium channel = target: T1, hERG potassium channel (Homo sapiens, UniProt Q12809); assay: hERG potassium channel inhibitory activity (Qpatch, CHO-hERG cells); type: cell-based; conditions: inhibition of hERG current, multiple concentrations
T1 construct: expressed in transfected cells; host or cells: CHO-hERG cells
Procedure: 7.1.1 CHO-hERG cells were cultured in a 175 cm^2 flask, when the cell density reached 60-80%, the culture medium was removed, the cells were washed with 7 mL PBS, and then digested with 3 mL Detachin.
7.1.2 After complete digestion, 7 mL culture medium was added to neutralize, then the mixture was centrifuged, the supernatant was aspirated, and then 5 mL culture medium was added to re-suspend, ensuring 2-5×10^6/mL of cell density.
The process of single cell high impedance sealing and whole cell mode formation were all automatically completed by Qpatch instrument, after obtaining the whole cell recording mode, the cells were clamped at −80 mV, before giving a 5-second +40 mV depolarization stimulus, a 50 millisecond −50 mV prevoltage was given first, and then repolarized to −50 mV for 5 seconds, then returned to −80 mV. This voltage stimulation was applied every 15 seconds and recorded for 2 minutes before giving extracellular fluid recordings for 5 minutes, and then the administration process was started, the compound concentration was given from the lowest test concentration, each test concentration was given for 2.5 minutes, and the positive control compound 0.1 μM of Cisapride was given after all concentrations were continuously given. At least 3 cells (n≥3) were tested at each concentration.
7.4.1 20 mM of compound mother liquor was diluted with extracellular fluid, 5 μL of 20 mM compound mother liquor was added into 2495 μL of extracellular fluid and diluted 500-fold to 40 μM, and then the final concentration to be tested was obtained by sequential 3-fold serial dilutions in extracellular solution containing 0.2% DMSO.
7.4.2 The highest test concentration was 40 μM, in a total of 6 concentrations of 40, 13.33, 4.44, 1.48, 0.49 and 0.16 μM respectively.
7.4.3 The content of DMSO in the final test concentration was not more than 0.2%, and this concentration of DMSO had no effect on hERG potassium channel.
The experimental data were analyzed by XLFit software.

[2] = test system: phosphorylated ERK in KRAS G12C mutant cells Mia PaCa-2; assay: Inhibition of phosphorylated ERK level in Mia PaCa-2 cells (LANCE Ultra); type: cell-based; conditions: Homo sapiens, 2 hours, read-out: Mia PaCa-2 pERK IC50
Text: As a preferred embodiment of the present disclosure, the method for detecting the inhibitory activity of phosphorylated ERK level is as follows: through cell culture, adding different concentrations of compound solutions to the cultured cells, continuing the culture for a period of time, lysing the cells, followed by centrifugation and […]; • further, the method of cell culture is: adjusting the cells to a suitable cell concentration with a complete medium, preferably the cell concentration is 1×10^6/mL, and spreading the cell suspension on a well plate for culture.
When Mia PaCa-2 cells were cultured to the appropriate fusion level, Mia PaCa-2 cells were collected, and the cell density was adjusted to 1×10^6/mL using complete culture medium, the cell suspension was spread on a 96-well plate, 50 μL per well, and placed adherent to the wall in a 37° C., 5% CO2 incubator overnight, compound solutions with different concentrations were prepared using DMSO and complete culture medium, a solvent control was set, the compound solution was added to a 96-well plate, 25 μL per well, and placed in a 37° C., 5% CO2 incubator for 2 hours of continuous culture, the supernatant was discarded from the cell culture plate, 50 μL of lysis solution was added to each well, and lysing was performed for 30 minutes by shaking at room temperature, then the mixture was centrifuged at 1000 rpm for 1 minute, 15 μL of supernatant was transferred to 384 well plate, 5 μL of detection mixture (Eu-labeled anti-ERK1/2 (T202-Y204) antibody with final concentration of 0.5 nM and ULight labeled anti-ERK1/2 antibody with final concentration of 5 nM) was added to each well, centrifuged at 1000 rpm for 1 minute and mixed uniformly, the reaction was carried out overnight at room temperature, the plate was read with BioTek Synergy H1, and the signal values was detected at 620 nm and 665 nm emission wavelengths by time-resolved fluorescence program.
The ratio of the signal values at 665 nm and 620 nm emission wavelength were calculated, and the ratio was used to calculate the inhibition rate, the concentration and the inhibition rate were fitted to a nonlinear regression curve using Graphpad Prism software, then the IC50 value was obtained.

[3] = test system: Mia PaCa-2 cells (KRAS G12C mutant cell line); assay: Inhibition of Mia PaCa-2 cell proliferation (CellTiter-Glo, 72 h); type: cell-based, human; conditions: Homo sapiens
In short: as §1

T1 sequence (Q12809 whole entry): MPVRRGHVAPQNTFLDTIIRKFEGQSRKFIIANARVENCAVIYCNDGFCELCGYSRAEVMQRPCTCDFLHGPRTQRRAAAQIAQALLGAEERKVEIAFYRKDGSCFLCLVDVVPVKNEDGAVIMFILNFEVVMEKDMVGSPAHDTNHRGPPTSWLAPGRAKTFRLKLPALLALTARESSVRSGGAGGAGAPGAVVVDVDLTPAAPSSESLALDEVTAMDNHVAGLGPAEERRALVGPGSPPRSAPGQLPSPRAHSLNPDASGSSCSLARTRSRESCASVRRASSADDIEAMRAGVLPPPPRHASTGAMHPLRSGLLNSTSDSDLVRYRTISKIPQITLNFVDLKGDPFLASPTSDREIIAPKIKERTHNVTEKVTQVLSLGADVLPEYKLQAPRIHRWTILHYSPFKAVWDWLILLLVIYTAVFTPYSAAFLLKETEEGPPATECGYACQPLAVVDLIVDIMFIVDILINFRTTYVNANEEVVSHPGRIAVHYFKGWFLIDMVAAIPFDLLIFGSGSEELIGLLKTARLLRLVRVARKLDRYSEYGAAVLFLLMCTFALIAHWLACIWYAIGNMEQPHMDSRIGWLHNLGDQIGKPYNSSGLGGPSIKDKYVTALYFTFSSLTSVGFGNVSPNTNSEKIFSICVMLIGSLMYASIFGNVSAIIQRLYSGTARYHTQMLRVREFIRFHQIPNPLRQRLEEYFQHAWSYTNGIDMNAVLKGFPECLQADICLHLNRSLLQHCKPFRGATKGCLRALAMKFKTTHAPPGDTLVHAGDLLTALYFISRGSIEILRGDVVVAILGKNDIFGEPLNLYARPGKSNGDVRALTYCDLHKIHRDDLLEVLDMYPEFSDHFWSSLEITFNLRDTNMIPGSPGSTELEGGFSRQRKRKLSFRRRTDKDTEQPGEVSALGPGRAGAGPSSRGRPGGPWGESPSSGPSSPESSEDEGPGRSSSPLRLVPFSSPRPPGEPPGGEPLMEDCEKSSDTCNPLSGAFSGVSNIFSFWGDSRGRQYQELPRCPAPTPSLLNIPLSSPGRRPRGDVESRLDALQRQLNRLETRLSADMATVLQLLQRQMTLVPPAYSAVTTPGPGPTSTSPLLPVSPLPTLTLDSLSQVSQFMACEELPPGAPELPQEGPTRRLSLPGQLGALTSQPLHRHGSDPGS

SMILES: C=CC(=O)N1C[C@H](C)N(c2nc(=O)n(-c3c(SC)ccnc3C(C)C)c3nc(-c4c(O)cccc4F)c(F)cc23)C[C@H]1C (single isomer, unassigned) [Embodiment 114-1]
- IC50 [1]: 35 nM
- IC50 (hERG potassium channel): > 30000 nM
- IC50 [2]: 38 nM
- IC50 [3]: 29 nM

SMILES: C=CC(=O)N1C[C@H](C)N(c2nc(=O)n(-c3c(SC)ccnc3C(C)C)c3nc(-c4c(N)ccc(Cl)c4F)c(Cl)cc23)C[C@H]1C (single isomer, unassigned) [Embodiment 165-1]
- IC50 [1]: 6.6 nM
- IC50 (hERG potassium channel): > 30000 nM
- IC50 [2]: 4.2 nM
- IC50 [3]: 3.3 nM

SMILES: C=CC(=O)N1C[C@H](C)N(c2nc(=O)n(-c3c(SC)ccnc3C(C)C)c3nc(-c4c(O)cccc4F)c(Cl)cc23)C[C@H]1C (single isomer, unassigned) [Embodiment 166-1]
- IC50 [1]: 17 nM
- IC50 (hERG potassium channel): > 30000 nM
- IC50 [2]: 20 nM
- IC50 [3]: 11 nM

Reference: patent US12497396B2, “Nitrogen-containing heterocyclic derivatives, method therefor and application therefor as inhibitors of KRAS G12C for the treatment of cancers” (SHANGHAI HANSOH BIOMEDICAL CO., LTD., priority 2019, dated 2025)
